Assays:
PKM2 = PKM2 (Homo sapiens, UniProt P14618); experiment: Covalent adduct formation with recombinant PKM2 (anti-compound 1 antibodies, nanoLC-MS/MS site mapping); type: binding; parameters: made in house
Protocol: As this cell-based kinase assay could not rule out the involvement of PKM1, we examined the abilities of compound 1 to inhibit the kinase activity of recombinant PKM2 (SAE0021, Sigma-Aldrich) versus recombinant PKM1 (SRP0415, Sigma-Aldrich) using a commercial PKM assay kit. […] In brief, PC-9 cells were exposed to different concentrations of compound 2 in the presence of compound 1 (1 μM) for 1 hour, lysed, and the cell lysates were treated with biotin-azide, followed by streptavidin bead pulldown under the aforementioned conditions. […] The antigen of compound 1 was prepared by coupling this small molecule with cysteine residues of ovalbumin, which was then used for immunization in guinea pigs.
Preparation of anti-compound 1 antiserum. compound 1 was coupled to the cysteine thiolate in ovalbumin (OVA) via the propiolyl moiety under alkaline conditions by using the modifications to a published method. […]
As PKM2 has a total of 10 cysteine residues (NCBI reference sequence: NM_002654), we conducted proteomic analysis to identify which cysteine residues were covalently modified by compound 1. […] In general, the modification site assignment was considered reliable if the b and y ions flanking the implicated site could be detected, with mass shifts corresponding to a compound 1-modified cysteine (+516.1773 Da). […]

[1] = test system: PC-3 prostate cancer cells; experiment: MTT cell viability assay, PC-3; type: cell-based; conditions: Homo sapiens; PC-3, MTT, 24 hours
Source text: Cell lines, cell culture, biochemical reagents, and antibodies. MiaPaCa-2, AsPC-1, and Panc-1 human pancreatic cancer cells, MCF-7 and MDA-MB-231 breast cancer cells, SCC4 and SCC2059 oral cancer cells, PC-3 and LNCaP prostate cancer cells, H157, H460, H1975, PC-9 and H1650 lung cancer cells were obtained from the American Type Culture Collection (ATCC, Manassas, Va.). All these cells were maintained in recommended growth medium (RPMI 1640 or DMEM) supplemented with 10% fetal bovine serum (FBS) (Invitrogen, Carlsbad, Calif., USA) and antibiotics at 37° C. in a humidified incubator containing 5% CO2. For SILAC experiments, PC-9 cells were grown in SILAC DMEM medium (Thermo Fisher) supplemented with 10% dialyzed FBS and 100 μg/mL each of unlabeled L-arginine and L-lysine (light medium) or ^13C/^15N stable isotope-labeled L-arginine and L-lysine (heavy medium). […]
Cell viability assays. Drug effects on cell viability was assessed by 3-(4,5-dimethylthiazol-2-yl)-2,5-diphenyltetrazolium bromide ([…]) assays. […] The medium was then removed from each well and replaced with DMSO to dissolve the reduced MTT dye for subsequent colorimetric measurement of absorbance at 560 nm. Cell viabilities are expressed as percentages of viable cells relative to the corresponding vehicle-treated control group.

Sequence of PKM2 (P14618 whole entry): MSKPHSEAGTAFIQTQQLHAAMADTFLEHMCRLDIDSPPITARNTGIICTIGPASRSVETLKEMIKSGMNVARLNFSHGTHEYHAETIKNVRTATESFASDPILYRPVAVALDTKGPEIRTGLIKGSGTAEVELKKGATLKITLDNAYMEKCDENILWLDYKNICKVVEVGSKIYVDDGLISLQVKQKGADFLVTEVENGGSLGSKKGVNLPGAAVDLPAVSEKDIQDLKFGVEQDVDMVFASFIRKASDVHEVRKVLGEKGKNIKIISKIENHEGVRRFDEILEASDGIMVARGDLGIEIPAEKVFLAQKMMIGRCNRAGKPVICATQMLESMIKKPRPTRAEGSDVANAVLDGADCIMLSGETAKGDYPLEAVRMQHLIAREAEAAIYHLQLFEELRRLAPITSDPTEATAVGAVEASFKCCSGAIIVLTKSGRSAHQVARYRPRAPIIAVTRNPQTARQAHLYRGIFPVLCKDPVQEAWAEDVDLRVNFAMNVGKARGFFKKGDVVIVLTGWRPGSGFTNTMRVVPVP

IC50 [1]: 600 nM
SMILES: C#CC(=O)Nc1ccc(-n2nc(CCC(=O)NC)cc2-c2ccc(-c3ccc(C(F)(F)F)cc3)cc2)cc1 [compound 1, N-(4-(3-(3-(Methylamino)-3-oxopropyl)-5-(4′-(trifluoromethyl)-[1,1′-biphenyl]-4-yl)-1H-pyrazol-1-yl)phenyl)propiolamide]
covalent adduct with recombinant PKM2 (anti-compound 1 antibodies) (PKM2; Western blot, 4° C. for 6 hours): antibodies cross reacted with compound 1-treated PKM2 | cysteine residues of PKM2 covalently modified (PKM2; tryptic digestion, nanoLC-MS/MS): covalently coupled to the two cysteine residues Cys317 and Cys326
